The values that follow come from patent publication US10336762B2 (priority 2017, dated 2019).

One test relates to TNFα. The test is described as follows: cells. The conditions noted are these: Homo sapiens, Monocyte, LPS-stimulated human monocytes, TNFα content; read-out: EC50 TNF. The class given is cell-based, human.
The next test deals with IRAK4 enzyme (Homo sapiens (Human), UniProt Q9NWZ3). Put plainly: biochemical. Format: biochemical. The conditions noted are these: IRAK4 enzyme, TR-FRET, 500 μM ATP. (In TR-FRET formats the signal depends on donor and acceptor labels being close together.)
Sequence of IRAK4 enzyme (Q9NWZ3 whole entry): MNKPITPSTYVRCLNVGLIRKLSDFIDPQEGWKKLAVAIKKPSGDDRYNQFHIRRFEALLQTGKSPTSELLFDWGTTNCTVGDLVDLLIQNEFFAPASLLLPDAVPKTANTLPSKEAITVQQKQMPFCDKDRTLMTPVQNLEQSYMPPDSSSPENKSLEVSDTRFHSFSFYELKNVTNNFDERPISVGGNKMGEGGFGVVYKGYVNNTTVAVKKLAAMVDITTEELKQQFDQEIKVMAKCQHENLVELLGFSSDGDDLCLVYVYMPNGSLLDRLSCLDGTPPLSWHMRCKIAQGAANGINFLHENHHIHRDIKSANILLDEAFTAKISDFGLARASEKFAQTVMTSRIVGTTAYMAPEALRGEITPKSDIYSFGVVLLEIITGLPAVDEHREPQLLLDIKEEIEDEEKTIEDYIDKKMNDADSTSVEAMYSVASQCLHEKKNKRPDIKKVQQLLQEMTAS

Broadly, the EC50 is the concentration giving half of the maximal effect. In general, IC50 refers to the concentration that inhibits the measured activity by half. A lower IC50 goes with greater potency in that assay. Take `CC(C)Nc1cc(-c2ccc3cc(C#N)cnn23)ncc1C(=O)N[C@@H]1CCC[C@H](O)C1` [Example 193, 6-(3-cyanopyrrolo[1,2-b]pyridazin-7-yl)-N-((1R,3S)-3-hydroxycyclohexyl)-4-(isopropylamino) nicotinamide]: the EC50 in the test with TNFα came out at 141 nM. For the same compound, inhibition on IRAK4 enzyme was half-maximal at 3 nM (IC50).

In the case of `CC(C)(O)[C@H](F)CNC(=O)c1cnc(-c2ccc3cc(C#N)cnn23)cc1N[C@@H]1CCOC1` [Example 194, 6-(3-cyanopyrrolo[1,2-b]pyridazin-7-yl)-N-((R)-2-fluoro-3-hydroxy-3-methylbutyl)-4-(((R)-tetrahydrofuran-3-yl)amino)nicotinamide], the EC50 in the test on TNFα stood at 48 nM. The same compound registered an IC50 at IRAK4 enzyme below 1 nM.

For `CC(C)(O)[C@H](F)CNC(=O)c1cnc(-c2ccc3cc(C#N)cnn23)cc1N[C@H]1CCOC1` [Example 195, 6-(3-cyanopyrrolo[1,2-b]pyridazin-7-yl)-N-((R)-2-fluoro-3-hydroxy-3-methylbutyl)-4-(((S)-tetrahydrofuran-3-yl)amino)nicotinamide], in the test on TNFα, the EC50 was 37 nM. For the same compound, the IC50 at IRAK4 enzyme is below 1 nM.

Turning to `COC(=O)N1Cc2ccc(Nc3cc(-c4ccc5cc(C#N)cnn45)ncc3C(=O)NC[C@@H](F)C(C)(C)O)cc2C1` [Example 196, (R)-methyl 5-((2-(3-cyanopyrrolo[1,2-b]pyridazin-7-yl)-5-((2-fluoro-3-hydroxy-3-methylbutyl)carbamoyl)pyridin-4-yl)amino)isoindoline-2-carboxylate], the half-maximal effective concentration (EC50) with TNFα was 53 nM. The IC50 on IRAK4 enzyme amounted to 2 nM.

As for `CC(=O)N1Cc2ccc(Nc3cc(-c4ccc5cc(C#N)cnn45)ncc3C(=O)NC[C@@H](F)C(C)(C)O)cc2C1` [Example 197, (R)-4-((2-acetylisoindolin-5-yl)amino)-6-(3-cyanopyrrolo[1,2-b]pyridazin-7-yl)-N-(2-fluoro-3-hydroxy-3-methylbutyl)nicotinamide], the EC50 with TNFα turned out to be 42 nM. Also, 1 nM corresponded to half-maximal inhibition on IRAK4 enzyme (IC50).

Consider `CC(C)(O)[C@H](F)CNC(=O)c1cnc(-c2ccc3cc(C#N)cnn23)cc1Nc1ccc(CNCC(F)(F)F)cc1` [Example 198, (R)-6-(3-cyanopyrrolo[1,2-b]pyridazin-7-yl)-N-(2-fluoro-3-hydroxy-3-methylbutyl)-4-((4-(((2,2,2-trifluoroethyl)amino)methyl)phenyl)amino)nicotinamide], for which the 50% effective concentration (EC50) with TNFα is 16 nM. For the same compound, the IC50 against IRAK4 enzyme is below 1 nM.

As to `CC(C)(O)[C@H](F)CNC(=O)c1cnc(-c2ccc3cc(C#N)cnn23)cc1Nc1cnn([C@H]2CCN(C3COC3)C2)c1` [Example 199, 6-(3-cyanopyrrolo[1,2-b]pyridazin-7-yl)-N-((R)-2-fluoro-3-hydroxy-3-methylbutyl)-4-((1-((S)-1-(oxetan-3-yl)pyrrolidin-3-yl)-1H-pyrazol-4-yl)amino)nicotinamide], the 50% effective concentration (EC50) with TNFα came out at 82 nM. This compound also registered a concentration for half-maximal inhibition (IC50) at IRAK4 enzyme below 1 nM.

In the case of `CC(C)(O)[C@H](F)CNC(=O)c1cnc(-c2ccc3cc(C#N)cnn23)cc1Nc1ccc(CN2CCCC2=O)cc1` [Example 200, (R)-6-(3-cyanopyrrolo[1,2-b]pyridazin-7-yl)-N-(2-fluoro-3-hydroxy-3-methylbutyl)-4-((4-((2-oxopyrrolidin-1-yl)methyl)phenyl)amino) nicotinamide], the EC50 with TNFα is 15 nM. Moreover, the IC50 against IRAK4 enzyme turned out to be 1 nM.

As for `CC(C)(O)[C@H](F)CNC(=O)c1cnc(-c2ccc3cc(C#N)cnn23)cc1Nc1ccc(CN2CCOC2=O)cc1` [Example 201, (R)-6-(3-cyanopyrrolo[1,2-b]pyridazin-7-yl)-N-(2-fluoro-3-hydroxy-3-methylbutyl)-4-((4-((2-oxooxazolidin-3-yl)methyl)phenyl)amino) nicotinamide], the EC50 with TNFα worked out at 11 nM. This compound also showed an IC50 against IRAK4 enzyme of 1 nM.

As for `CC(C)(O)[C@H](F)CNC(=O)c1cnc(-c2ccc3cc(C#N)cnn23)cc1Nc1ccc(CNC(=O)C2CC2)cc1` [Example 202, (R)-6-(3-cyanopyrrolo[1,2-b]pyridazin-7-yl)-4-((4-(cyclopropane-carboxamidomethyl)phenyl)amino)-N-(2-fluoro-3-hydroxy-3-methylbutyl)nicotinamide], the EC50 with TNFα was determined as 22 nM. This compound returned a half-maximal inhibitory concentration (IC50) on IRAK4 enzyme below 1 nM.

On to `CC(C)C(=O)NCc1ccc(Nc2cc(-c3ccc4cc(C#N)cnn34)ncc2C(=O)NC[C@@H](F)C(C)(C)O)cc1` [Example 203, (R)-6-(3-cyanopyrrolo[1,2-b]pyridazin-7-yl)-N-(2-fluoro-3-hydroxy-3-methylbutyl)-4-((4-(isobutyramidomethyl)phenyl)amino) nicotinamide], for which, in the test with TNFα, the EC50 was 44 nM. This compound also yielded an IC50 against IRAK4 enzyme below 1 nM.

Take `CCC(=O)NCc1ccc(Nc2cc(-c3ccc4cc(C#N)cnn34)ncc2C(=O)NC[C@@H](F)C(C)(C)O)cc1` [Example 204, (R)-6-(3-cyanopyrrolo[1,2-b]pyridazin-7-yl)-N-(2-fluoro-3-hydroxy-3-methylbutyl)-4-((4-(propionamido-methyl)phenyl)amino)nicotinamide]: the EC50 in the test with TNFα is 27 nM. In addition, the IC50 against IRAK4 enzyme was below 1 nM.

For `CC(C)(O)[C@H](F)CNC(=O)c1cnc(-c2ccc3cc(C#N)cnn23)cc1Nc1ccc(CN2CC(F)(F)C2)cc1` [Example 205, (R)-6-(3-cyanopyrrolo[1,2-b]pyridazin-7-yl)-4-((4-((3,3-difluoroazetidin-1-yl)methyl)phenyl)amino)-N-(2-fluoro-3-hydroxy-3-methylbutyl) nicotinamide], the EC50 in the test with TNFα turned out to be 115 nM. Besides, the IC50 on IRAK4 enzyme worked out at 1 nM.

In the case of `CC(C)(O)[C@H](F)CNC(=O)c1cnc(-c2ccc3cc(C#N)cnn23)cc1Nc1cnn([C@@H]2CCN(C3COC3)C2)c1` [Example 206, 6-(3-cyanopyrrolo[1,2-b]pyridazin-7-yl)-N-((R)-2-fluoro-3-hydroxy-3-methylbutyl)-4-((1-((R)-1-(oxetan-3-yl)pyrrolidin-3-yl)-1H-pyrazol-4-yl)amino)nicotinamide], the concentration giving a half-maximal response (EC50) with TNFα turned out to be 133 nM. On IRAK4 enzyme, this compound registered a 50% inhibitory concentration (IC50) of 1 nM.

With `Cc1ncc(-c2ccc(Nc3cc(-c4ccc5cc(C#N)cnn45)ncc3C(=O)NC[C@@H](F)C(C)(C)O)cc2)o1` [Example 207, (R)-6-(3-cyanopyrrolo[1,2-b]pyridazin-7-yl)-N-(2-fluoro-3-hydroxy-3-methylbutyl)-4-((4-(2-methyloxazol-5-yl)phenyl)amino) nicotinamide], the EC50 in the test with TNFα was found to be 96 nM. This compound returned an IC50 on IRAK4 enzyme of 1 nM.

On to `CC(C)(O)[C@H](F)CNC(=O)c1cnc(-c2ccc3cc(C#N)cnn23)cc1Nc1cnn([C@@H]2CCNC2)c1` [Example 208, 6-(3-cyanopyrrolo[1,2-b]pyridazin-7-yl)-N-((R)-2-fluoro-3-hydroxy-3-methylbutyl)-4-((1-((R)-pyrrolidin-3-yl)-1H-pyrazol-4-yl)amino) nicotinamide], for which the EC50 in the test with TNFα came to 92 nM. At IRAK4 enzyme, this compound yielded an IC50 below 1 nM.

`Cc1nnc(-c2ccc(Nc3cc(-c4ccc5cc(C#N)cnn45)ncc3C(=O)NC[C@@H](F)C(C)(C)O)cc2)o1` [Example 209, (R)-6-(3-cyanopyrrolo[1,2-b]pyridazin-7-yl)-N-(2-fluoro-3-hydroxy-3-methylbutyl)-4-((4-(5-methyl-1,3,4-oxadiazol-2-yl)phenyl)amino) nicotinamide]: the EC50 with TNFα is 84 nM. At IRAK4 enzyme, the IC50 was below 1 nM.
